Molecules are shown by their SMILES. Converted amounts (≈) assume the structure as drawn. Where two headings read alike, the source gives them in different places.

The test system of assay [1] is human multiple myeloma (MM) cell lines. As to the kind of experiment: colorimetric (WST-8) growth assay. As to conditions: for IC50: Homo sapiens. The class given is cell-based. From the text: Cells: Dexamethasone (Dex)-sensitive MM.1S (wild-type p53) and Dex-resistant MM.1R, RPMI 8226-Dox40 (doxorubicin resistant) and RPMI 8226-LR5 (melphalan resistant) human multiple myeloma (MM) cell lines were used. RPMI-8226 and U266 cells were obtained from the American Type Culture Collection (Rockville, Md.). SU-DHL-4 cells were also utilized. Fresh peripheral blood mononuclear cells (PBMNCs) were obtained from healthy subjects after informed consent. The PBMNC were separated from heparinized peripheral blood by Ficoll-Hipaque density sedimentation. BM specimens were acquired from patients with MM after obtaining informed consent and mononuclear cells were separated by Ficoll-Hipaque density sedimentation. Cells were cultured at 37° C. in RPMI 1640 containing 10% fetal bovine serum (FBS; Sigma, St Louis, Mo.), […], 100 U/mL penicillin, and 100 μg/mL streptomycin (Gibco, Grand Island, N.Y.).
Reagents: Honokiol (HNK; Calbiochem, San Diego, Calif.) was dissolved in ethanol at 20 mg/ml stock solution. Recombinant human interleukin-6 (IL-6), vascular endothelial growth factor (VEGF) and insulin-like growth factor-1 (IGF-1) (R&D Systems, Minneapolis, Minn.) were reconstituted with sterile PBS containing 0.1% FBS (IL-6 and VEGF) and 10 mM of acetic acid containing 0.1% FBS (IGF-1), respectively. Pan-caspase inhibitor z-VAD-fmk (Bachem, Bubendorf, Switzerland) was dissolved in methanol. These reagents were stored at −20° C. and diluted by media just before the use. Doxorubicin (Sigma, St Louis, Mo.) was dissolved in sterile water at the concentration of 3.45 mM. […] Absorbance readings at a wavelength of 450 nm were taken on a spectrophotometer (Molecular Devices Corp., Sunnyvale, Calif.).
HNK inhibits growth of MM cell lines. To identify the therapeutic potential of HNK, MM cell lines and normal PBMNCs were cultured at indicated concentration with HNK for 48 h, and growth was determined by calorimetric assays. […] FIGS. 6A and B show growth inhibition in MM cell lines by HNK as assessed by calorimetric assay after 48 h-culture. […]

The subject of assay [2] is RAW 264.7 cells. As to the kind of experiment: Osteoclast differentiation assay (RANKL). In kind it is cell-based, mouse. The settings on record: RAW 264.7, 5 mM (printed) honokiol 12 h, 5 nM RANKL. How it is done:
(A) RAW 264.7 cells (1×10^4) were plated overnight, pretreated with 5 mM honokiol for 12 h, and then treated with 5 nM RANKL. At 4 and 5 days later, cells were stained for TRAP and evaluated for osteoclastogenesis. Photographs were taken after 5 days of incubation with RANKL. (B) The numbers of TRAP-positive multinucleated osteoclasts (>3 nuclei) per well were counted. (C) H1299 cells (2.5×10^4) were seeded into the upper wells of a Matrigel invasion chamber overnight in the absence of serum, pretreated with […] honokiol for 12 h, treated with 1 nM TNF for 24 h in the presence of 1% serum, and then subjected to invasion assay. The value for no honokiol and no TNF was set to 1.0.
Osteoclast differentiation assay. […] At days 4 and 5, the cells were stained for tartrate-resistant acid phosphatase (TRAP) expression, as previously described (18) using an acid phosphatase kit (Sigma-Aldrich), and the TRAP-positive multinucleated osteoclasts (>3 nuclei) per well were counted.
Honokiol suppresses RANKL-induced osteoclastogenesis. Because RANKL, a member of the TNF superfamily, induces osteoclastogenesis through the activation of NF-kB (Abu-Amer, Y., et al. 1997 Nat. Med. 3:1189-1190), whether honokiol can suppress RANKL-induced osteoclastogenesis was assessed. […]

Assay [3] concerns AMP kinase in PC3 cells. As to the kind of experiment: AMPK activation (Western blot). In kind it is cell-based, human. The settings on record: normoxic and hypoxic conditions. How it is done: Bharti, A. C. et al (2004) Blood 103, 3175-3184; Arbiser, J. L et al (1998) Mol. Med. 4, 376-383; Woods, A. et al (2003) Current Biology 13, 2004-2008; Shaw, R. J. et al (2004) PNAS 101, 3329-3335; Buzzai, M. et al (2005) Oncogene 24, 4165-4173). […] PC3 cells were treated with honokiol in normoxia (left) or hypoxia (right). In both cases, HIF-1a induction is dose dependent, and in the case of hypoxia, at least additive. Compounds can be tested on the p53 deficient PC3 human prostate cancer cell line, to see whether treatment results in activation of AMPK as in FIG. 20. PC3 cells can be treated with compound or vehicle for 24 hours, then proteins harvested and analyzed by Western blot for phosphorylation of the alpha subunit of AMPK, a marker of AMPK activation. In addition, phosphorylation of a substrate of AMPK, acetyl CoA carboxylase (ACC) can be monitored by Western blot.

On to `C=CCc1ccc(O)c(-c2ccc(O)c(CC=C)c2)c1` [HNK, Honokiol], for which the IC50 in assay [1] (drug sensitive RPM18226, U266 and MM.1S cells, 48 h, read-out: fifty percent inhibition (IC50) at 48 h) is 8 to 10 µg/mL (≈ 30 to 37.5 µM); in assay [1] (including Melphalan-, Doxorubicin- and Dex-resistant cell lines, read-out: IC50 of growth inhibition of MM cell lines), less than 10 µg/mL. The “growth of drug resistant cell lines” value in assay [1] (RPM18226-Dox40, RPM18226-LR5 and MM.1R cells, 48 h) is “IC50 values similar to parental drug-sensitive cell lines”. The “RANKL-induced osteoclast differentiation (TRAP)” value in assay [2] is “suppressed it”. For the same compound, the “phosphorylation (activation) of AMP kinase” value in assay [3] is “increased phosphorylation (activation) of AMP kinase”.
